Test results published in ChEMBL document CHEMBL1141244, “Sulfonamide chalcone as a new class of alpha-glucosidase inhibitors” (Bioorg Med Chem Lett, 2005).
Activity calls are given as the source filed them. The calls are words filed in the database; no cut-off is given here.

How the values were obtained:
Saccharomyces cerevisiae = experiment: Inhibitory activity against baker's yeast alpha glucosidase at 200 uM
[1] = molecular target: Alpha-amylase (Bacillus licheniformis) (UniProt P06278); experiment: Inhibitory activity against Bacillus licheniformis alpha amylase at 200 uM
[2] = molecular target: Beta-amylase (Hordeum vulgare) (UniProt P16098); experiment: Inhibitory activity against barley beta amylase at 200 uM
Beta-amylase = Beta-amylase (Hordeum vulgare, UniProt P16098); experiment: Inhibitory activity against barley beta amylase
Alpha-amylase = Alpha-amylase (Bacillus licheniformis, UniProt P06278); experiment: Inhibitory activity against Bacillus licheniformis alpha amylase
[3] = Inhibitory activity against baker's yeast alpha glucosidase; design: species or system Saccharomyces cerevisiae

Beta-amylase, sequence (P16098 whole entry): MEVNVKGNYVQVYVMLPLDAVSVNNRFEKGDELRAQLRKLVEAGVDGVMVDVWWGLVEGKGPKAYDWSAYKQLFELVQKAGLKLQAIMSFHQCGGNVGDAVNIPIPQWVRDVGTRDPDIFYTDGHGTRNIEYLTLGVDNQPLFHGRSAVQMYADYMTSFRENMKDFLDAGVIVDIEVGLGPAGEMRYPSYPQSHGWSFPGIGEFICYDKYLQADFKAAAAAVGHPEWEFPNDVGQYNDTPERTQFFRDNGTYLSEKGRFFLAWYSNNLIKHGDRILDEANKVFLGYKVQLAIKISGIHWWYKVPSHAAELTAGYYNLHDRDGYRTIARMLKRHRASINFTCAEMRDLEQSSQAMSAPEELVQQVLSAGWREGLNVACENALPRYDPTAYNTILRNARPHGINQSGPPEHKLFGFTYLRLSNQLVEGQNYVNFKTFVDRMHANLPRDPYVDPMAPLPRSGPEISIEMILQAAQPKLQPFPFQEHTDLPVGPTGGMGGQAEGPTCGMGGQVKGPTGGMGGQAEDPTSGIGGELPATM
Beta-amylase (Hordeum vulgare), sequence (P16098 whole entry): as above
Alpha-amylase, sequence (P06278 whole entry): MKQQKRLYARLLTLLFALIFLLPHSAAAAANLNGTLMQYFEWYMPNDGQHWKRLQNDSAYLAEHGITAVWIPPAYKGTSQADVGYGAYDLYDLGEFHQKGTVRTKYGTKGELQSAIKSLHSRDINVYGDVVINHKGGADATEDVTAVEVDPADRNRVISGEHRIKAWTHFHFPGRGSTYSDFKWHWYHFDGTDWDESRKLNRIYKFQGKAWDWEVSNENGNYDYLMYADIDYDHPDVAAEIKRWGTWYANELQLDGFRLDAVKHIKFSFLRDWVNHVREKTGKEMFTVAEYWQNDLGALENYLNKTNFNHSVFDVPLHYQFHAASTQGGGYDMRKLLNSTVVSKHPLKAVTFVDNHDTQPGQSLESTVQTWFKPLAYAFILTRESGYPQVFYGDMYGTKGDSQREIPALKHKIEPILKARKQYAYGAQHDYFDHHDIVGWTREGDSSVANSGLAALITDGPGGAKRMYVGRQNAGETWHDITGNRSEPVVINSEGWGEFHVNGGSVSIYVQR
Alpha-amylase (Bacillus licheniformis), sequence (P06278 whole entry): as above

O=c1c(O)c(-c2cc(O)c(O)c(O)c2)oc2cc(O)cc(O)c12
Activity (Saccharomyces cerevisiae): inactive | Activity [1]: inactive | Activity [2]: inactive

O=C(/C=C/c1ccc(O)c(O)c1)c1ccccc1
Activity (Saccharomyces cerevisiae): inactive | Activity [1]: inactive | Activity [2]: inactive

Nc1ccc(C(=O)/C=C/c2ccc(O)cc2)cc1
IC50 (Beta-amylase): Not Active | IC50 (Alpha-amylase; read-out: IC50): 269 µM | IC50 [3]: 41 µM

Cc1ccc(S(=O)(=O)Nc2ccc(C(=O)/C=C/c3ccc(O)c(O)c3)cc2)cc1
IC50 (Beta-amylase; read-out: IC50): 65 µM | IC50 (Alpha-amylase; read-out: IC50): 194 µM | IC50 [3]: 0.4 µM | Ki [3]: 0.24 µM

Cc1ccc(S(=O)(=O)Nc2cccc(C(=O)/C=C/c3ccc(O)cc3)c2)cc1
IC50 (Beta-amylase; read-out: IC50): 201 µM | IC50 (Alpha-amylase; read-out: IC50): 37.3 µM | IC50 [3]: 12.4 µM | Ki [3]: 7.38 µM

C[C@H]1O[C@H](O[C@H]2[C@H](O)[C@@H](O)[C@@H](O[C@H]3[C@H](O)[C@@H](O)C(O)O[C@@H]3CO)O[C@@H]2CO)[C@H](O)[C@@H](O)[C@@H]1N[C@H]1C=C(CO)[C@@H](O)[C@H](O)[C@H]1O (stereo not given in full) [ACARBOSE]
IC50 [3]: 60.8 µM

Nc1ccc(C(=O)/C=C/c2ccc(O)c(O)c2)cc1
IC50 (Beta-amylase; read-out: IC50): 127 µM | IC50 (Alpha-amylase): Not Active | IC50 [3]: 62.1 µM

O=C(/C=C/c1cccc(O)c1O)c1ccccc1
Activity (Saccharomyces cerevisiae): inactive | Activity [1]: inactive | Activity [2]: inactive

Oc1cc(O)c2c(c1)O[C@H](c1ccc(O)c(O)c1)[C@@H](O)C2
Activity (Saccharomyces cerevisiae): inactive | Activity [1]: inactive | Activity [2]: inactive

O=C(/C=C/c1ccc(O)cc1O)c1ccccc1
Activity (Saccharomyces cerevisiae): inactive | Activity [1]: inactive | Activity [2]: inactive

Cc1ccc(S(=O)(=O)Nc2cccc(C(=O)/C=C/c3ccc(O)c(O)c3)c2)cc1
IC50 (Beta-amylase; read-out: IC50): 24.8 µM | IC50 (Alpha-amylase; read-out: IC50): 16.8 µM | IC50 [3]: 15.6 µM | Ki [3]: 9.25 µM

O=C(/C=C/c1cccc(O)c1)c1ccc(O)cc1
Activity (Saccharomyces cerevisiae): inactive | Activity [1]: inactive | Activity [2]: inactive

O=C(/C=C/c1ccccc1O)c1ccccc1
Activity (Saccharomyces cerevisiae): inactive | Activity [1]: inactive | Activity [2]: inactive

Nc1cccc(C(=O)/C=C/c2ccc(O)cc2)c1
IC50 (Beta-amylase; read-out: IC50): 206 µM | IC50 (Alpha-amylase): Not Active | IC50 [3]: > 200 µM

O=C(/C=C/c1cc(O)ccc1O)c1ccccc1
Activity (Saccharomyces cerevisiae): inactive | Activity [1]: inactive | Activity [2]: inactive

Cc1ccc(S(=O)(=O)Nc2ccc(C(=O)/C=C/c3ccc(O)cc3)cc2)cc1
IC50 (Beta-amylase; read-out: IC50): 247 µM | IC50 (Alpha-amylase; read-out: IC50): 87.8 µM | IC50 [3]: 0.98 µM | Ki [3]: 0.58 µM

O=c1c(O)c(-c2ccc(O)c(O)c2)oc2cc(O)cc(O)c12
Activity (Saccharomyces cerevisiae): inactive | Activity [1]: inactive | Activity [2]: inactive

Oc1cc(O)c2c(c1)O[C@@H](c1ccc(O)c(O)c1)[C@H](O)C2
Activity (Saccharomyces cerevisiae): inactive | Activity [1]: inactive | Activity [2]: inactive

Nc1cccc(C(=O)/C=C/c2ccc(O)c(O)c2)c1
IC50 (Beta-amylase): Not Active | IC50 (Alpha-amylase): Not Active | IC50 [3]: > 200 µM

O=C(/C=C/c1ccc(O)cc1)c1ccccc1
Activity (Saccharomyces cerevisiae): inactive | Activity [1]: inactive | Activity [2]: inactive

O=C(/C=C/c1ccc(O)cc1)c1ccc(O)cc1
Activity (Saccharomyces cerevisiae): inactive | Activity [1]: inactive | Activity [2]: inactive
